This is an account of results in patent publication US4456614A, “3-Amino-1-[(1,4-benzodioxan)-2-yl-methoxy]-2-propanols, pharmaceutical compositions thereof, and their use as medicaments” (Pierre Fabre S.A., priority 1980, dated 1984).

In data set [1] the test system is isolated atrium (rabbit right atrium). The experiment in a line: Effect on the frequency of spontaneous flutterings of the isolated atrium. To be noted: for inhibition at 10 µg/mL: Oryctolagus cuniculus, 0.4 h, after 24 minutes, 1 mg (per 100 ml), read-out: Percentage of reduction of the frequency. The procedure: (c) Effect on the frequency of spontaneous flutterings of the isolated atrium. Method: Rabbit right atrium in survival in a Ringer-Locke's solution. The substances to be studied are introduced into the tank (at the rate of 0.5 and 1 mg per 100 ml) and remain in contact with the myocardial tissue for 24 minutes.

In the next data set the test system is Local anesthesia. The experiment in a line: Local anesthesia (test of J. Regnier). The note with it: 1% solution. It counts as in vivo. From the text:
Local anesthesia: test of J. Regnier--Doctoral Dissertation, Med., 203 pages, Bruilliard St Dizier, 1929.

Another data set has as its system adrenergic receptors. As to the kind of experiment: Inhibitory property of the adrenergic receptors (isoprenaline tachycardia in dogs). It counts as in vivo. From the text: (2) Search for an inhibitory property of the adrenergic receptors
Method: Isoprenaline tachycardia in dogs. Simultaneous recording of the heart rate and of the arterial pressure.

The next data set relates to toxicity to yohimbine. The experiment in a line: Anti-depressant properties (potentialization of yohimbine toxicity in mice). It counts as in vivo. From the text:
Anti-depressant properties (W. J. LANG and S. GORSHORN Arch. Int. Pharmacodyn., 142, 457, 1963).

Another data set has as its system isolated rabbit atrium. As to the kind of experiment: Activity on the electrosystolic entrainment of the isolated rabbit atrium. To be noted: isolated rabbit right atrium, Ringer-Locke's solution. The procedure: (d) Activity on the electrosystolic entrainment of the isolated rabbit atrium (G. S. DAWES--Pharmacol. Rev., 4, 43-84, 1952).
Method: Rabbit right atrium in a Ringer-Locke's solution.
After determination of the threshold voltage for the entrainment of the muscle, the latter is subjected to frequencies which increase in successive steps until obtaining a maximum frequency for which the tissue is incapable of responding to the stimuli.
The product is added to the bath. Three electric entrainments are effected in the following 25 minutes. The experiment is then continued for one hour after the rinsing of the tank.

Data set [2] relates to ventricular tachycardia of digitalic origin. As to the kind of experiment: Ventricular tachycardia of digitalic origin (ouabain) in anesthetized dogs. Type of data set: in vivo. The note with it: doses of 2 and 5 mg/kg. From the text:
(a) Action with respect to ventricular tachycardia of digitalic origin (LUCHESI and HARDMAN--J. Pharmacol. exp. Ther., 1961, No. 132, pages 372 to 81).
Method: Creation of a stable ventricular tachycardia in ten dogs (anesthetized) by successive intravenous injections of ouabain.

For another data set, the system named is cardiovascular system. The experiment in a line: Systemic effects in dogs. The note with it: 1, 2 and 5 mg/kg. Type of data set: in vivo. The procedure:
(3) Systemic effects in dogs
Doses used: 1, 2 and 5 mg/kg
left intraventricular pressure

The test system of data set [3] is auricular tachycardia produced by aconitine. As to the kind of experiment: Auricular tachycardia produced by aconitine in dogs. Type of data set: in vivo. The note with it: 5 mg/kg. An excerpt:
(b) Influence on an auricular tachycardia produced by aconitine.
Method: (D. SCHERF--Proc. Soc. exp. Biol., 1947, 64, 233). A tachycardia is caused in dogs by intramural injection of aconitine in the right atrium near the sinusoidal node.
The rhythm is increased in proportions of 80 to 100%. The auriculo-ventricular tracks show normal permeability, the ventricles are driven at the same frequency.

The test system of another data set is central nervous system. The experiment in a line: Potentialization of the barbiturate and chloralhydrate anesthesia in mice. Type of data set: in vivo. The note with it: 100 mg/kg. From the text: Potentialization of the barbiturate and chloralhydrate anesthesia in mice.
The test system of a further data set is toxicity of pentetrazole. The experiment in a line: Anticonvulsant property (pentetrazole toxicity in mice). It counts as in vivo. To be noted: orally, 100 mg/kg, pentetrazole subcutaneously. An excerpt:
Anticonvulsant property (G. CHEN and R. PORTMAN, A.M.A. Arch. Neurol. Psychiat., 68, 498, 1952).

A short description of another data set: Solubility in water. Type of data set: physicochemical.
The subject of the next data set is Urinary excretion. The experiment in a line: Diuretic effect in rats (Lipschitz). Type of data set: in vivo. The note with it: 100 mg/kg orally. From the text:
Diuretic effect (W. LIPSCHITZ J. Pharmacol. Exp. Ther., 79, 97, 1943) in rats.

Structures can show the parent of a compound that is named as a salt.

For `CCC1CN2CCC1CC2[C@@H](O)c1ccnc2ccc(OC)cc12` (stereo partly shown) [Dihydroquinidine, reference compound], in [1], the inhibition at 10 µg/mL stood at 35%.
What is called solubility is the concentration that dissolves in the medium under given conditions. High values mean much dissolved substance, low ones little dissolved substance. As for `CC(C)(C)NCC(O)COCC1COc2ccccc2O1` (stereo not shown) [Example 1, 3-tertiobutylamino-1-[(1,4-benzodioxan)-2-ylmethoxy]-2-propanol maleate], the “local anesthetic properties compared with Lidocaine” value with Local anesthesia was “local anesthetic properties superior to Lidocaine”. Also, in the data set on adrenergic receptors (5 mg/kg), the beta-blocking effect result is reported as “substantial” and the cardioselectivity entry is recorded as “cardioselectivity is noted”. The “reduction of isoprenaline tachycardia” value with adrenergic receptors (from 1 mg/kg intravenously) is on record as “significantly reduces the isoprenaline tachycardia starting with a dose of 1 mg/kg intravenously”. Further, the inhibition at 10 µg/mL in data set [1] stood at 16%. In addition, the “chronotropic effect compared with dihydroquinidine” value in [1] (isolated rabbit right atrium, Ringer-Locke's solution) is “definitely a less negative chronotropic effect than dihydroquinidine”. Moreover, the “potentialization of toxicity to yohimbine” value with toxicity to yohimbine was “No potentialization of toxicity to yohimbine”. In the data set on isolated rabbit atrium, the “functional refractory period of the isolated atrium” value is on record as “extends the functional refractory period of the isolated atrium in the same way as dihydroquinidine”. Besides, the “opposition of ectopic rhythm” value in [2] (ten dogs, ouabain) was “opposes ectopic rhythm in all the animals”. Besides, the period of activity result in [2] (in 80% of the cases) is reported as “more than 30 minutes”. Besides, in the data set on cardiovascular system, the “force of cardiac contraction” value was “decreases the force of cardiac contraction”; the “impact on the cardiovascular system” value is on record as “little impact on the cardiovascular system”; the peripheral resistances result is “decreases the force of cardiac contraction and the peripheral resistances”. For the same compound, in data set [3], the “% reduction of auricular tachycardia” value is 60%; the “effect on auricular tachycardia” value is “reduces auricular tachycardia substantially and lastingly”; the “persistence of the effect after injection” value came out at 30 min. The “Potentialization of the barbiturate and chloralhydrate anesthesia” value in the data set on central nervous system was “nothing to report”. In the data set on toxicity of pentetrazole, the “protection from toxicity of pentetrazole” value was “does not protect mice from toxicity of pentetrazole”. In addition, in the data set “Solubility in water”, the solubility was 100 mg/mL. Further, the diuretic power result in the data set on Urinary excretion is “does not have any diuretic power”. The Urinary excretion in the data set on Urinary excretion (Control 28%) worked out at 35%.
